Results as given in patent publication US20230218573A1, “INDOLE COMPOUNDS FOR THE TREATMENT OF NEURODEGENERATIVE DISEASES” (GALYAN BIO, INC., priority 2020, published 2023).
Read-outs that look alike come from different tables or passages of the source.

Assays:
[1] = test system: STHdh 111/111 striatal cells; assay: Cell viability (CellTiter Glo) of heat shocked STHdh 111/111 striatal cells; format: cell-based, mouse; conditions: STHdh 111/111, 10 µM, 48 hours treatment; for viability at 10 µM: Mus musculus, read-out: Cell Viability striatal cells 3h heat shocked
Procedure: Cell culture - ST HDH Q111/111 (CH00095, Coriell Institute) striatal derived cell line were grown at 33° C. in DMEM (Sigma-Aldrich), supplemented with 10% fetal bovine serum (FBS), 1% Penicillin-Streptomycin (ThermoFisher Scientific), and 0.4 mg/ml G418 (Geneticin; Invitrogen). ST HDH Q111/111 are mouse striatal cells with polyQ length of 1111.
(§1) Pre-Treatment of striatal cell line - First the medium was removed and new DMEM (DMEM, high glucose, HEPES, no phenol red) medium, supplemented with 10% fetal bovine serum (FBS), 1% Penicillin-Streptomycin, containing 10 µM compound was added. The cells were incubated at 33° C. for 24 hours.
(§2) Heat shock - Cells were heat shocked for 3 hours at 41° C.
(§3) Treatment - Medium was removed and new DMEM (DMEM, high glucose, HEPES, no phenol red) medium, supplemented with 1% fetal bovine serum (FBS), 1% Penicillin-Streptomycin, containing 10 µM compound was added. The cells were incubated at 33° C. for 48 hours.
Cell Viability - Cell viability was measured according to manufacturer recommendations with CellTiter Glo (Promega). 96-well plates for used either for cell viability determination or cell staining.

STHdh 7/7 striatal cells = assay: Cell viability of heat shocked STHdh 7/7 striatal cells; format: cell-based, mouse; conditions: 48 hours treatment; for viability at 10 µM: Mus musculus, read-out: Cell Viability striatal cells 3h heat shocked; for Cell Viability striatal cells 3h heat shocked: 10 µM
Procedure: RESULTS - Table 7b summarizes the effect of the compounds on cell viability. STHdh 7/7 were heat shocked for 3 hours and treated for 48 hours with small molecule compounds. Table 2 lists the cell viability in striatal cells after 48 hours.
Effect of Compound 22 on Cell Viability of Wildtype Striatal Neurons - STHdh 7/7 cells are striatal cells that express wildtype huntingtin. These cells were cultured in the same conditions as described above for STHdh 111/111. The neurons were first heat shocked for 3 hours at 41° C. as described above. After 48 hours of treatment with the small molecule Compounds, cell viability was determined using the method described above. The “buffer” control is represents cells treated with a buffer only, without any compounds added. Some of the compounds show higher cell viability in comparison to control heat shocked STHdh 7/7 neurons with buffer and no treatment (FIG. 9).

mHTT = mHTT (Mus musculus, UniProt P42859, DEL28-30/G47A/INS49LLPQPQPP/INS60VA/L56P/P40L); assay: Diffuse mHTT levels in heat shocked STHdh 111/111 striatal cells by immunocytochemistry; conditions: for remaining activity at 10 µM: 48 h
Procedure: as §1, §2, §3
Staining - Cells were permeabilized with 0.3% Triton X-100 in 4° C. PBS (pH 7.4 from ThermoFisher) for 10 minutes. Then the cells were washed two times with 4° C. PBS. Subsequently, cells are blocked with 3% NGS (normal goat serum from Thermo Fisher) in 4° C. PBS for 1 hour. Cells were incubated with primary antibodies in blocking buffer (PBS, 3% NGS, 0.02% NaN3) over night at 4° C. Primary antibodies were mouse antipolyglutamine monoclonal antibody 3B5H10 (Sigma-Aldrich) at 1:250 dilution and Guinea Pig anti-MAP2 polyclonal antibody (Synaptic Systems) at 1:500 dilution. 3B5H10 binds to diffuse mHTT. Diffuse mHTT is a monomeric and small oligomeric mHTT.
Cells were washed 2 times with 4° C. PBS, and then incubated with secondary antibodies at 1:2000 dilution in blocking buffer for 1 hour at room temperature. […] Cells were washed 2 times with 4° C. PBS, and then the nuclei were counterstain with DAPI (ThermoFisher) for 10 min at room temperature in the dark. Cells were washed 2 times with 4° C. PBS, and then 4° C. PBS was added to cells and then images were acquired.
Fluorescence Imaging - Imaging sessions were performed on a confocal microscope system (Carl Zeiss Microscopy) equipped with a dual spinning disk unit (Yokogawa). All components of the imaging system were controlled via the ZEN 2 software suite (Carl Zeiss Microscopy). The laser lines used were 405 nm, 488 nm and 639 nm to excite DAPI or the respective fluorophores. […] Nested t test was performed to calculate the significance amongst repeated measurements using GraphPad Prism software.
ST HDH Q7/7 (CH00097, Coriell Institute) striatal derived cell line from a knock in transgenic mouse containing HTT loci with a humanized Exon 1 containing 7 polyglutamine repeats.
EC 50 value was determined with non-linear regression.

[2] = read-out: mHTT after treatment, 10 µM, 3 h heat shock, 48 hours treatment, in comparison to untreated STHdh 111/111

mHTT, sequence (P42859 with tags, fused parts or gaps DEL28-30/P40L/G47A/INS49LLPQPQPP/L56P/INS60VA): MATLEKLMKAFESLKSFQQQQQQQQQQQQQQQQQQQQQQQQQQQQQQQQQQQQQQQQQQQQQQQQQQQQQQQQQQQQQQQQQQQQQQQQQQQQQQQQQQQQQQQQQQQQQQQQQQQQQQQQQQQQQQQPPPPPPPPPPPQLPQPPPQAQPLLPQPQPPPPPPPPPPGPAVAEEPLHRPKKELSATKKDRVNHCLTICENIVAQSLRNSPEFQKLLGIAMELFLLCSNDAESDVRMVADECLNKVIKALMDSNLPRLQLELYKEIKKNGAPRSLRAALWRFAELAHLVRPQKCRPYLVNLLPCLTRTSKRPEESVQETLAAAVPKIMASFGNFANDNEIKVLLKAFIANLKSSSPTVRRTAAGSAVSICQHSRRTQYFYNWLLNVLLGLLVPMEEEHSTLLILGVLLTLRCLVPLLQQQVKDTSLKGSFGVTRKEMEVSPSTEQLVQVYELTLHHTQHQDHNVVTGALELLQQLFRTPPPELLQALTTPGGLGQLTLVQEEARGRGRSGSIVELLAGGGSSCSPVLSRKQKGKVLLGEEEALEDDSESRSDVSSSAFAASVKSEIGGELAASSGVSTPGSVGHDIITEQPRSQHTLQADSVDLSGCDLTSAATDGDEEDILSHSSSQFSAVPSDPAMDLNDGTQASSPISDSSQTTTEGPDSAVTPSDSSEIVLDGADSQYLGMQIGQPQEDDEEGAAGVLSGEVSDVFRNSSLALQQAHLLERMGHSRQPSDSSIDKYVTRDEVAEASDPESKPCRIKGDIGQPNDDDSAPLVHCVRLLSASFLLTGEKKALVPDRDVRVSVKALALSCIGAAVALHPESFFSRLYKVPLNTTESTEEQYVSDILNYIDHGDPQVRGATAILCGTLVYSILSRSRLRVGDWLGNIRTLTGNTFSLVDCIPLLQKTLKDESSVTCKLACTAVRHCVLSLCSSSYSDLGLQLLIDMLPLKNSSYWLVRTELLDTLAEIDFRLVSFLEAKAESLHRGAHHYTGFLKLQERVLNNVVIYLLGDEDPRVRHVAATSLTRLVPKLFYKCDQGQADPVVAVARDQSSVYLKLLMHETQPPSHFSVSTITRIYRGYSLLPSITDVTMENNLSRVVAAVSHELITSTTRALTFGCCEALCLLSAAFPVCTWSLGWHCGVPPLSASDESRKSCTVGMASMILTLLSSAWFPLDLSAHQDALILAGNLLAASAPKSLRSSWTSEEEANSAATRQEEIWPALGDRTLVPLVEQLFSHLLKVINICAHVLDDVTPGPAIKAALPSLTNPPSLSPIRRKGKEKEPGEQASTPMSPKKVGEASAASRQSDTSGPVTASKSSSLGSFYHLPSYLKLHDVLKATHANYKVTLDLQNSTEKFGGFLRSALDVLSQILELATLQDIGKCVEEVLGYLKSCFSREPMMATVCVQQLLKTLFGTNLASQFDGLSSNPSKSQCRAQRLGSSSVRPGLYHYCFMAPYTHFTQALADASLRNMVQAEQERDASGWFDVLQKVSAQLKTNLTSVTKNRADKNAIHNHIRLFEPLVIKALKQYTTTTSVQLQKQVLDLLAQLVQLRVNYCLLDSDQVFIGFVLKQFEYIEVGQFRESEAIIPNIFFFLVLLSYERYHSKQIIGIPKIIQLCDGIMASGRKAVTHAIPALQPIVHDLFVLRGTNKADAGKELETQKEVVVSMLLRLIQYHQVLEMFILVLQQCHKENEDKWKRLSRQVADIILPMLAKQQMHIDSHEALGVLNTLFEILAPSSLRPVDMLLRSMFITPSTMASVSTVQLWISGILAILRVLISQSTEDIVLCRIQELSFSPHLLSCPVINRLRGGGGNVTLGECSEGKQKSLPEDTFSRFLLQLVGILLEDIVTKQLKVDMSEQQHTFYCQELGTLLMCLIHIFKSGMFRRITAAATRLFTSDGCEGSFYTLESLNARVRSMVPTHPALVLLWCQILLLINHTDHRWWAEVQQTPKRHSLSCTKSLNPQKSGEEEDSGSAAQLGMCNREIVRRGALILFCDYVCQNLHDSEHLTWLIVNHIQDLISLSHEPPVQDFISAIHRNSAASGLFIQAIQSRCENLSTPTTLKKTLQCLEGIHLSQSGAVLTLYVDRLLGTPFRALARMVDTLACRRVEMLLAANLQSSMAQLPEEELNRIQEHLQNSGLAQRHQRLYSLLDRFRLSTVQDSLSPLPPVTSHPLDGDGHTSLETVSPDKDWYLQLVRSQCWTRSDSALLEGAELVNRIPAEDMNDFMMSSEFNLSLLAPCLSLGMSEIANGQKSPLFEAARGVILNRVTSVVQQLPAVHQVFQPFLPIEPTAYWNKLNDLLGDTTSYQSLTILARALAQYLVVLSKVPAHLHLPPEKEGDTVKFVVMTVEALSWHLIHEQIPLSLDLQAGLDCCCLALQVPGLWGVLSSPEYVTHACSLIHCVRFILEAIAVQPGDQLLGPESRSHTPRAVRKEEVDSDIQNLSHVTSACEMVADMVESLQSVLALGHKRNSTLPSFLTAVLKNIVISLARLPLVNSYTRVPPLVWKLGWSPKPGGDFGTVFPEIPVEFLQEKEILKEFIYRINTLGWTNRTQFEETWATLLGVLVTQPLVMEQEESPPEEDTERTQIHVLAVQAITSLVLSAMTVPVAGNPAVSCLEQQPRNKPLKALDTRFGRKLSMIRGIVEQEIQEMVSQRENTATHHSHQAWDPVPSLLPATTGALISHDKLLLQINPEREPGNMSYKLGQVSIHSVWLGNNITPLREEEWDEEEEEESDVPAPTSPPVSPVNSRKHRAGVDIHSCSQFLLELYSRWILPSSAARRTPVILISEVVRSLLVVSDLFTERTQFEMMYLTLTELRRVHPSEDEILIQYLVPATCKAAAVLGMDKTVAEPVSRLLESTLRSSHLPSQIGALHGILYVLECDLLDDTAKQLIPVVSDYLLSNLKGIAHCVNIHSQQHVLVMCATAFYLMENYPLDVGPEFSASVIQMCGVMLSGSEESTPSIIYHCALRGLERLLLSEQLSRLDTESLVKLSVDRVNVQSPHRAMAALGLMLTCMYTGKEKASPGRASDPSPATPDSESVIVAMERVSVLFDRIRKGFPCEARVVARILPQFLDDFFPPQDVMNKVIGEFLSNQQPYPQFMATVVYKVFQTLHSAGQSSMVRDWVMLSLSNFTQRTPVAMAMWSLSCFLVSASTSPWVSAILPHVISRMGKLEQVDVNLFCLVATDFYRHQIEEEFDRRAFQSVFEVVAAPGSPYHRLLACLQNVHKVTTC

Structure (SMILES)	viability at 10 µM [1]	other results
Cc1[nH]c2ccc(C(=O)NCCN3CCCC3)cc2c1C [Compound 29, 2,3-Dimethyl-N-(2-(pyrrolidin-1-yl)ethyl)-1H-indole-5-carboxamide]	103%	viability at 10 µM (STHdh 7/7 striatal cells): 131%
Cc1c(C)n(C)c2ccc(C(=O)NCCN3CCCCC3)cc12 [Compound 31, 1,2,3-Trimethyl-N-(2-(piperidin-1-yl)ethyl)-1H-indole-5-carboxamide]	116%	–
Cc1c(C)n(C)c2ccc(C(=O)NCCN3CCC3)cc12 [Compound 44, N-(2-(Azetidin-1-yl)ethyl)-1,2,3-dimethyl-1H-indole-5-carboxamide]	75%	remaining activity at 10 µM (mHTT; [2]): 66%
Cc1c(C)n(C)c2ccc(C(=O)NCCN3CCCC3)cc12 [Compound 46, 1,2,3-Trimethyl-N-(2-(pyrrolidin-1-yl)ethyl)-1Hindole-5-carboxamide]	96%	–
CCc1c(C)[nH]c2ccc(C(=O)NCCN3CCCCC3)cc12 [Compound 18]	103%	remaining activity at 10 µM (mHTT; read-out: mHTT after treatment): 44%
CCN(CC)CCNC(=O)c1ccc2[nH]c(C)c(C)c2c1 [Compound 21, N-(2-(Diethylamino)ethyl)-2,3-dimethyl-1H-indole-5-carboxamide]	87%	viability at 10 µM (STHdh 7/7 striatal cells): 82.6%
CCN(CC)CCNC(=O)c1ccc2[nH]ccc2c1 [Compound 52]	59%	remaining activity at 10 µM (mHTT; read-out: mHTT after treatment): 73%
CCN(CC)CCNC(=O)c1ccc2[nH]c3c(c2c1)CCCC3 [Compound 26]	82%	remaining activity at 10 µM (mHTT; read-out: mHTT after treatment): 49%
Cc1c(C)n(C)c2ccc(C(=O)NCCN(C(C)C)C(C)C)cc12 [Compound 56]	–	Cell Viability striatal cells 3h heat shocked [1]: 27; remaining activity at 10 µM (mHTT; read-out: mHTT after treatment): 109%; Cell Viability striatal cells 3h heat shocked (STHdh 7/7 striatal cells): 64.1
Cc1[nH]c2ccc(C(=O)NCCN3CCCCC3)cc2c1C [Compound 47, 2,3-Dimethyl-N-(2-(piperidin-1-yl)ethyl)-1H-indole-5-carboxamide]	66%	–
CCc1c(C)[nH]c2ccc(C(=O)NCCN3CCOCC3)cc12 [Compound 32]	98%	–
CN(C)CCNC(=O)c1ccc2[nH]c3c(c2c1)CCCC3 [Compound 3]	86%	–
CCc1c(C)[nH]c2ccc(C(=O)NCCN(C)C)cc12 [Compound 1]	111%	remaining activity at 10 µM (mHTT; read-out: mHTT after treatment): 30%
CCc1[nH]c2ccc(C(=O)NCCN3CCC3)cc2c1C [Compound 6]	113%	remaining activity at 10 µM (mHTT; read-out: mHTT after treatment): 37%
Cc1c(C)n(C)c2ccc(C(=O)NCCN(C(C)C)C(C)C)cc12.Cl [Compound 39]	–	Cell Viability striatal cells 3h heat shocked [1]: 117; remaining activity at 10 µM (mHTT; [2]): 58%
Cc1c(C)n(C)c2ccc(C(=O)NCCN(C)C)cc12 [Compound 41, N-(2-(Dimethylamino)ethyl)-1,2,3-trimethyl-1H-indole-5-carboxamide]	75%	–
CN1CCN(CCNC(=O)c2ccc3[nH]c4c(c3c2)CCCC4)CC1 [Compound 36]	84%	–
O=C(NCCN1CCOCC1)c1ccc2[nH]c3c(c2c1)CCC3 [Compound 8]	115%	–
CC(C)N(CCNC(=O)c1ccc2[nH]ccc2c1)C(C)C [Compound 72]	–	viability at 10 µM (STHdh 7/7 striatal cells): 45.7%
CCc1[nH]c2ccc(C(=O)NCCN3CCCCC3)cc2c1C [Compound 23]	84%	–
CN1CCN(CCNC(=O)c2ccc3[nH]c4c(c3c2)CCC4)CC1 [Compound 10]	96%	remaining activity at 10 µM (mHTT; read-out: mHTT after treatment): 40%

Structure (SMILES)	viability at 10 µM [1]	other results
O=C(NCCN1CCCC1)c1ccc2[nH]c3c(c2c1)CCCC3 [Compound 13]	117%	–
Cc1c(C)n(C)c2ccc(C(=O)NCCN3CCCCC3C)cc12 (stereo not shown) [Compound 48]	108%	–
CCc1[nH]c2ccc(C(=O)NCCN(C)C)cc2c1C [Compound 37]	78%	–
Cc1c(C)n(C)c2ccc(C(=O)NCCN3CCOCC3)cc12 [Compound 40]	85%	mHTT after treatment (mHTT; 10 µM, 3 h heat shock, 48 hours treatment, in comparison to untreated STHdh 111/111): 62%
Cc1c(C)n(C)c2ccc(C(=O)NCCN3CCN(C)CC3)cc12 [Compound 45]	81%	remaining activity at 10 µM (mHTT; [2]): 66%
CN(C)CCNC(=O)c1ccc2[nH]c3c(c2c1)CCC3 [Compound 5]	104%	–
O=C(NCCN1CCCCC1)c1ccc2[nH]c3c(c2c1)CCCC3 [Compound 16]	117%	–
CCc1[nH]c2ccc(C(=O)NCCN3CCCC3)cc2c1C [Compound 11]	114%	remaining activity at 10 µM (mHTT; read-out: mHTT after treatment): 40%
CCN(CC)CCNC(=O)c1ccc2c(c1)c(C)c(C)n2C [Compound 19, N-(2-(Diethylamino)ethyl)-1,2,3-dimethyl-1H-indole-5-carboxamide]	76%	remaining activity at 10 µM (mHTT; [2]): 45%
Cc1c(C)n(C)c2ccc(C(=O)NCCN3CCN(C)C(C)C3)cc12 (stereo not shown) [Compound 25, N-(2-(3,4-Dimethylpiperazin-1-yl)ethyl)-1,2,3-trimethyl-1H-indole-5-carboxamide]	109%	–
Cc1[nH]c2ccc(C(=O)NCCN3CCC3)cc2c1C [Compound 17, N-(2-(Azetidin-1-yl)ethyl)-2,3-dimethyl-1H-indole-5-carboxamide]	99%	–
CC(C)N(CCNC(=O)c1ccc2[nH]ccc2c1)C(C)C [Compound 43]	32%	–
O=C(NCCN1CCC1)c1ccc2[nH]c3c(c2c1)CCC3 [Compound 42]	88%	–
CCc1c(C)[nH]c2ccc(C(=O)NCCN3CCN(C)CC3)cc12 [Compound 15]	104%	–
O=C(NCCN1CCCC1)c1ccc2[nH]c3c(c2c1)CCC3 [Compound 14]	113%	remaining activity at 10 µM (mHTT; read-out: mHTT after treatment): 41%
CCc1[nH]c2ccc(C(=O)NCCN3CCOCC3)cc2c1C [Compound 30]	55%	–
CCN(CC)CCNC(=O)c1ccc2[nH]c3c(c2c1)CCC3 [Compound 27]	66%	remaining activity at 10 µM (mHTT; read-out: mHTT after treatment): 50%
CCc1c(C)[nH]c2ccc(C(=O)NCCN3CCC3)cc12 [Compound 33]	79%	–
O=C(NCCN1CCOCC1)c1ccc2[nH]c3c(c2c1)CCCC3 [Compound 12]	106%	remaining activity at 10 µM (mHTT; read-out: mHTT after treatment): 40%
Cc1c(C)n(C)c2ccc(C(=O)NCCN(C(C)C)C(C)C)cc12.Cl [Compound 59]	–	Cell Viability striatal cells 3h heat shocked (STHdh 7/7 striatal cells): 153.6
CCc1[nH]c2ccc(C(=O)NCCN(CC)CC)cc2c1C [Compound 38]	81%	–
